# Measured values: publication PMC8008885 (Journal of Enzyme Inhibition and Medicinal Chemistry, 2021)
# Read-outs that look alike come from different tables or passages of the source.
# Key:
# striatum of YAC128 mice = assay: Histology and immunohistochemistry of the striatum of YAC128 mice (Nissl, H3K9me3, DARPP-32, calbindin, DAPI, SUV39H1); format: in vivo, mouse
# Method: (§1) YAC128 mice were bred with females from their background strain (B6CBAFI/J), and offspring were genotyped using PCR as previously described. All mice were weighed at 3 weeks of age and equally distributed according to weight and percentage within each cohort. […] The biochemical and behavioural/neuropathological symptoms of mice were determined after 4 weeks of drug administration. These procedures were performed in accordance with Guide for the Care and Use of Laboratory Animals guidelines. The animal protocol was approved by IACUC (Institutional Animal Care and Use Committee) in Hanyang University, Ansan, Republic of Korea.
# Immunofluorescence staining and confocal microscopy was used to determine the trimethylated-histone H3 (Lys9) (H3K9me3) (Millipore, Billerica, MA) (1:1000). The procedures were performed as previously described. The specimens were incubated for 1 h with Alexa Fluor 594 goat anti-rabbit antibody (abcam, Cambridge, UK; 1:400) after incubation of the primary antibody. Images were analysed using an A1 Nikon confocal laser scanning microscope (Nikon, Tokyo, Japan).
# DARPP-32 is a dopamine- and cAMP-regulated neuronal phosphoprotein, which plays an important role in dopamine neurotransmission. Its expression is severely impaired in the striatum of YAC128 mice compared with that of WT mice.
# White nodes are interacting genes with the seed genes identified by the network analysis algorithm of IPA. The network represented dense connections between the epigenome associated with chromatin modification (such as Suv39h1, Mecp2, KDM5c, etc.), transcription regulation (such as Elk1, Foxp4, Hoxa6, Dhx9, etc.), metabolic process (such as Acsl4, Fbp2, Nat2, etc.), and signal transduction pathways (such as Cnksr2, Dusp9, Rab9, etc.) (Figure 8(d)). Especially, SUV39H1, a histone H3K9 methyltransferase, was closely associated with signalling pathways and other modules (Figure 8(d)). We further verified that SUV39H1 immunoreactivity was markedly elevated in YAC128 mice (Figure 8(e)).
# [1] = tested on: STHdhQ7/7 (wild type) cells; assay: Cell viability MTT assay; format: cell-based; settings: 24 h, concentration range 1–100 µM
# Method: Cell viability was quantified using MTT assay (Sigma, St. Louis, MO, M2128). In brief, cells were cultured in each well of 96-well plates with varying concentrations of compounds for 24 h. Following incubation of cells in each well with MTT (0.5 mg/ml) for 4 h, the culture supernatant was discarded. Cells were washed with PBS three times, and the insoluble formazan product dissolved in DMSO. The optical density (OD) of each culture well was measured using as ELISA reader at 570 nm. The OD570 in control cells was taken as 100% viability.
# Next, we evaluated the inhibitory activity of our compound against SETDB1 enzyme by comparing with a well-known methyltransferase inhibitor […] using chemo-luminescence assay (Figure S1a).
# Q111 cells = assay: FRET-based histone H3K9 methylation biosensor live cell imaging
# Method: Fluorescence resonance energy transfer (FRET)-based histone H3K9 methylation biosensor was previously described. In brief, H3K9 biosensor is composed of a methyl-lysine binding domain of HP1 protein and a H3 tail peptide containing lysine9 between ECFP and YPet, and the NLS sequences were added in the C-terminal for the nucleus localisation of the biosensor. For the image acquisition, Q7 or Q111 cells were cultured on cover-glass-bottom dishes and the H3K9 biosensor was transfected into the cells using Lipofectamine 2000 (Invitrogen, Carlsbad, CA) according to the manufacturer’s protocols. Images were collected by a Nikon Ti-E inverted microscope with 420DF20 excitation filter, 450DRLP dichroic mirror, and two emission filters (475DF40 for ECFP and 535DF25 for YPet) controlled by a filter changer. Image analysis was performed using NIS element-AR software. Nucleus regions were selected as the regions of interests and the emission ratio of ECFP and YPet was calculated after background subtraction. The colour of each pixel was determined by the ECFP/YPet ratio value.
# (§2) Moreover, the promoter assay was carried out.
# [2] = Pharmacokinetics after intravenous and oral administration to SD rats; format: in vivo, Sprague-Dawley (SD) male rats; settings: rat, 10 mg/kg; for Kp at 2 h: brain/plasma, read-out: Brain-to-plasma (B/P) ratio at 2 h; for half-life: read-out: Terminal half-life
# Description: It is well known that the blood–brain barrier (BBB) is a key obstacle impeding the entry of drugs into the brain.
# YAC128 mice = assay: Rotarod test in HD transgenic (YAC128) mice; format: in vivo, mouse; settings: i.p. five times a week, after 4 weeks, vs vehicle treated YAC128 mice
# Method: as §1
# SETDB1/ESET promoter = SETDB1/ESET promoter assay; format: cell-based; settings: neuronal cells transfected with SETDB1 promoter construct, 0 to 20 µM
# Method: STHdh^Q7/Q7 (wild type) and STHdh^Q111/Q111 (HD knock-in striatal cell line expresses mutant huntingtin at endogenous level) were generously provided from Dr. Marcy MacDonald (Harvard Medical School, Boston, MA)[35]. The SETDB1/ESET promoter assay was performed as previously described[24]^,[28]. Briefly, 2.5 × 10^5 cells were plated onto 48-well cell culture plates 24 h prior to the transfection of 200 ng of ETDB1/ESET promoter construct. DMRIE-C reagent (Invitrogen, Carlsbad, CA) was used as a transfection reagent and transfections were performed according to the manufacturer’s protocol. Nogalamycin and distamycin were purchased from Sigma-Aldrich (St. Louis, MO).
# as §2
# [3] = male, Sprague-Dawley, plasma, intravenous
# [4] = male, Sprague-Dawley, plasma, oral
# [5] = male, Sprague-Dawley, intravenous, plasma
# [6] = male, Sprague-Dawley, oral, plasma
compound,measurement,setting,value
"C=CCOc1cccc2nc(N3CCCC3)ccc12 [APQ, 5-allyloxy-2-(pyrrolidin-1-yl)quinoline]",DARPP-32 expression in the striatum,striatum of YAC128 mice,considerably improved
same,immunoreactive intensity of calbindin stained neurons,striatum of YAC128 mice,increased
same,nuclei size of medium spiny neurons (DAPI),striatum of YAC128 mice,restores
same,H3K9me3 immunoreactivity in striatal neurons,striatum of YAC128 mice; comparable to the level of WT controls,significantly reduced
same,level of SUV39H1 (immunoreactivity) in striatal neurons,striatum of YAC128 mice; similar to the level in WT mice,significantly reduced
same,neuronal atrophy / size of striatal medium spiny neurons (Nissl staining),striatum of YAC128 mice; striatum,significantly restored
same,"cytotoxicity (cell viability, MTT)",[1],did not show any cytotoxicity
same,FRET/ECFP ratios of H3K9 methylation,Q111 cells,effectively modulates
same,Kp at 2 h,"[2]; male, Sprague-Dawley, intravenous",4.18
same,Kp at 2 h,"[2]; male, Sprague-Dawley, oral",0.44
same,concentration at 2 h,"[2]; male, Sprague-Dawley, brain, intravenous, read-out: Brain concentration at 2 h",407 ng/mL
same,concentration at 2 h,"[2]; male, Sprague-Dawley, brain, oral, read-out: Brain concentration at 2 h",3.7 ± 1.1 ng/mL
same,MRT,[2]; [3],1.6 h
same,clearance,[2]; [3],183 ± 26.1 mL/min/kg
same,concentration at 8 h,[2]; [3],20 ng/mL
same,concentration at 2 h,"[2]; male, Sprague-Dawley, plasma, intravenous, read-out: Plasma concentration at 2 h",100 ng/mL
same,half-life,[2]; [3],2.55 ± 0.101 h
same,Vd,"[2]; male, Sprague-Dawley, plasma, intravenous, read-out: Vss",25.6 ± 5.2 L/kg
same,bioavailability,"[2]; male, Sprague-Dawley, plasma, oral vs intravenous, read-out: F (bioavailability)",6.7%
same,Cmax,[2]; [4],40 ± 10 ng/mL
same,concentration at 8 h,[2]; [4],0 ng/mL
same,Tmax,"[2]; male, Sprague-Dawley, plasma, oral, median (range)",1 h
same,concentration at 2 h,"[2]; male, Sprague-Dawley, plasma, oral, read-out: Plasma concentration at 2 h",10 ng/mL
same,half-life,[2]; [4],1.58 ± 0.223 h
same,AUC(0-inf),[2]; [5],923 ng·h/mL
same,AUC(0-t),[2]; [5],858 ng·h/mL
same,AUC(0-inf),[2]; [6],61.7 ng·h/mL
same,AUC(0-t),[2]; [6],60.7 ng·h/mL
same,Ae (excreted amount),[2]; intravenous,0.00%
same,Brain concentration at 2 h,[2]; intravenous,406.6 ± 81.3 ng/mL
same,Plasma concentration at 2 h,[2]; intravenous,100 ± 10 ng/mL
same,Ae (excreted amount),[2]; oral,0.00%
same,motor behaviour (rotarod test),YAC128 mice,significantly improved
same,transcriptional activity of SETDB1 (promoter assay),SETDB1/ESET promoter,represses the transcriptional activity of SETDB1 in a dose-dependent manner
